Among the data in patent US8575197B2, “Pyrolinone derivative and pharmaceutical composition comprising the same” (Shionogi & Co., Ltd., priority 2008, dated 2013) are IC50 values, retold here.

The assay deals with human P2X3 receptor (Homo sapiens (Human), UniProt P56373). Description: P2X3 receptor inhibition, ATP-evoked Fluo-3 calcium fluorescence (FDSS 3000). In kind it is cell-based. The conditions noted are these: C6BU-1 cell transfected with human P2X3 receptor gene; ATP-evoked Fluo-3 fluorescence. In outline:
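C6BU-1 cells stably transfected with human P2X3, loaded with 4 μM Fluo-3-AM for 1 h at 37 °C in HEPES buffer pH 7.5 with probenecid. Compound added 5 min before 40 nM ATP solution; fluorescence followed 3 min. IC50 from ratio of peak post-ATP to baseline fluorescence.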

human P2X3 receptor, sequence (P56373 whole entry): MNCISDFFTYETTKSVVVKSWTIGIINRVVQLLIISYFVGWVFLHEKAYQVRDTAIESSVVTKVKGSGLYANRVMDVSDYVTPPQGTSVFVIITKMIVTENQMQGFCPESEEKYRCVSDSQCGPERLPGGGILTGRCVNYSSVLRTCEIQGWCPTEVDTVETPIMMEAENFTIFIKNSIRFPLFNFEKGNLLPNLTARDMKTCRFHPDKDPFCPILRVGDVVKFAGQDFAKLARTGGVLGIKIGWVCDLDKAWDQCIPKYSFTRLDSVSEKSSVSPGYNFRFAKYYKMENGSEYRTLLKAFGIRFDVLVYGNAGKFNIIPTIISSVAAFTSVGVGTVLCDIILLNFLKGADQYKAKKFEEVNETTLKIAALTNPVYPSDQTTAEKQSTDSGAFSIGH

Take `COCCOc1ccccc1C1C(C(=O)CC(C)C)=C(O)C(=O)N1c1ccc(SC(F)(F)F)cc1` (stereo not drawn) [Compound I-446]: the IC50 amounted to 338 nM.

As to `COc1ccc(F)cc1C1c2c(C(C)(C)C)n[nH]c2C(=O)N1c1ccc(-c2ccon2)cc1` (stereo not drawn) [II-062], the IC50 came out at 112 nM.

As to `Cc1ccc(-c2ccc(N3C(=O)C(O)=C(C(=O)CC(C)C)C3c3cccnc3C(=O)OC(C)C)cc2)s1` (stereo not drawn) [Compound I-504], the IC50 amounted to 238 nM.

As to `COCCOc1ncccc1C1c2c(n[nH]c2C(C)C)C(=O)N1c1ccc(-c2nc(C)no2)cc1` (stereo not drawn) [II-281], the IC50 amounted to 664 nM.

As for `COc1ccccc1C1c2c(C(C)(C)C)n[nH]c2C(=O)N1c1ccc(OC(C)C)cc1` (stereo not drawn) [II-002], the IC50 was 217 nM.

`CC(C)(C)C(=O)C1=C(O)C(=O)N(c2ccc(-c3ccsc3)cc2)C1c1ccccc1OCC(N)=O` (stereo not drawn) [Compound I-151]: the IC50 amounted to 8 nM.

`CC(C)(C)c1n[nH]c2c1C(c1ccccc1C(=O)O)N(c1ccc(-c3ccsc3)cc1)C2=O` (stereo not drawn) [II-131]: the IC50 worked out at 88 nM.

Turning to `CCOc1ncccc1C1C(C(=O)C2CCCC2)=C(O)C(=O)N1c1ccc(-c2ccsc2)cc1` (stereo not drawn) [Compound I-515], the IC50 was determined as 37 nM.

On to `CC(C)CC(=O)C1=C(O)C(=O)N(c2ccc(-c3ccsc3)cc2)C1c1ccccc1OC(F)(F)F` (stereo not drawn) [Compound I-330], for which the IC50 is 70 nM.

On to `COc1cc(N2C(=O)c3[nH]nc(C(C)C)c3C2c2ccccc2OC)ccc1-c1ccsc1` (stereo not drawn) [II-235], for which the IC50 was determined as 17 nM.

`Cc1nc(-c2ccc(N3C(=O)C(O)=C(C(=O)C(C)C)C3c3ccccc3N3CCOCC3)cc2)no1` (stereo not drawn) [Compound I-487]: the IC50 was found to be 167 nM.

As to `COCCOc1ccccc1C1C(C(=O)C(C)(C)C)=C(O)C(=O)N1c1ccc(-c2ccco2)cc1` (stereo not drawn) [Compound I-132], the IC50 came out at 43 nM.
